As usually defined, the IC50 is the concentration needed to halve the response being measured. What is called Km is the concentration of substrate that gives half-maximal velocity.

This is an account of results in publication PMC5500509, “The prognostic biomarker L-homoarginine is a substrate of the cationic amino acid transporters CAT1, CAT2A and CAT2B” (Scientific Reports, 2017).

Data set [1] addresses T1, human CAT2A (SLC7A2A) (Homo sapiens, UniProt P52569).
T1 construct: expressed in transfected cells
Put plainly: CAT2A-mediated uptake of [3H]-L-homoarginine in HEK293 cells overexpressing CAT2A. The class given is cell-based. The method, then: (§1) Cell lines and basic cell culture conditions have previously been described, [24]. The original choice of human embryonic kidney cells (HEK293) cells for transfection with CAT1-, CAT2A- or CAT2B- was based on their reliable growth and well established propensity for transfection and cellular uptake experiments. In brief, uptake assays were performed using [^3H]-labeled substrate and human embryonic kidney (HEK293) cells stably overexpressing the empty vector only (HEK VCG418 and HEK VChygro, depending on selection conditions) or human CAT1 (HEK CAT1, gene: SLC7A1, NM_003045.4), CAT2A (HEK CAT2A, gene: SLC7A2A, NM_003046.5) or CAT2B (HEK CAT2B, SLC7A2B, NM_001008539.3). The cells were cultured in minimal essential medium containing 10% heat-inactivated fetal bovine serum, 100 U/l penicillin, 100 μg/ml streptomycin, and either G418 (800 µg/ml) or hygromycin B (260 µg/ml) at 37 °C and 5% CO2 with subculture as required. Trypsin (0.05%)-EDTA (0.02%) solution was used to detach cells. All cell culture media supplements were obtained from Invitrogen GmbH (Karlsruhe, Germany).
(§2) The transport assays were performed as previously described with minor modifications, [24]. Cells were seeded into poly-D-lysine-coated 12-well plates. Sodium butyrate (10 mmol/l) was added after 24 h of culture for 24 h to enhance CAT1, CAT2A or CAT2B protein expression. […] In order to identify the period of linear L-homoarginine uptake time dependence was assessed. Cells were incubated with the transport buffer containing 100 μmol/L L-homoarginine at 37 °C for 1, 2.5, 5, 10 and 30 min. […]
(§3) Statistical analysis was performed using GraphPad Prism 5 (version 5.01, 2007, GraphPad Software, San Diego, CA, USA). Net transport data were calculated as the difference of uptake from cells transfected with the respective CAT transporter and the corresponding empty control vector. […] KM-values for the uptake transport were calculated using Michaelis–Menten enzyme kinetics. The corresponding IC50 values for inhibition were calculated by fitting the data to a sigmoid dose–response regression curve. […]

Data set [2] concerns the target T2, human CAT2B (SLC7A2B) (Homo sapiens, UniProt P52569).
T2 construct: expressed in transfected cells
The data set is described as follows: Inhibition of CAT2B-mediated substrate uptake in HEK CAT2B cells. The format is cell-based. The method, then:
as §1
(§4) The transport assays were performed as previously described with minor modifications, [24]. Cells were seeded into poly-D-lysine-coated 12-well plates. Sodium butyrate (10 mmol/l) was added after 24 h of culture for 24 h to enhance CAT1, CAT2A or CAT2B protein expression. […] In order to identify the period of linear L-homoarginine uptake time dependence was assessed. Cells were incubated with the transport buffer containing 100 μmol/L L-homoarginine at 37 °C for 1, 2.5, 5, 10 and 30 min. For determination of kinetic parameters of CAT-mediated L-homoarginine transport increasing L-homoarginine concentrations and an incubation time of 2.5 min were used.
(§5) After cooling to 0 °C the cells were washed three times with ice-cold transport buffer and lysed with 0.2% SDS. The intracellular accumulation of radioactivity was determined by liquid scintillation counting (TriCarb 2800; PerkinElmer Life and Analytical Sciences, Inc.) after adding 4 ml of scintillation solution (Ultima Gold XR; PerkinElmer Life and Analytical Sciences, Inc., Rodgau-Jügesheim, Germany). A bicinchoninic acid assay was used to assess the protein concentrations. […]
as §3

On the set-up of data set [3]: method as in PMID 27434056. The settings on record: healthy volunteers, augmented from 2.9 µmol/l; cited from earlier work.
Data set [4] has as its system rat hepatocytes. More on the design: method as in PMID 7068644. The settings on record: read-out: KM for uptake of L-homoarginine by cells; cited from earlier work.
The target of data set [5] is T3, human CAT1 (SLC7A1) (Homo sapiens, UniProt P30825).
T3 construct: expressed in transfected cells
The data set is described as follows: CAT1-mediated uptake of [3H]-L-homoarginine in HEK293 cells overexpressing CAT1. The format is cell-based. The method, then: as §1, §2, §3

In data set [6] the target is T1, human CAT2A (SLC7A2A). The data set is described as follows: Inhibition of CAT2A-mediated substrate uptake in HEK CAT2A cells. The class given is cell-based. The settings on record: for inhibition of CAT2A-mediated transport of L-homoarginine: substrate L-homoarginine 100 µmol/l, inhibitor 1-10000 µmol/l, IC50 not calculable. The method, then:
as §1, with “All cell culture media supplements were obtained from Invitrogen GmbH (Karlsruhe, Germany).” left out
The transport assays were performed as previously described with minor modifications, [24]. […] In order to identify the period of linear L-homoarginine uptake time dependence was assessed. […]
After cooling to 0 °C the cells were washed three times with ice-cold transport buffer and lysed with 0.2% SDS. The intracellular accumulation of radioactivity was determined by liquid scintillation counting (TriCarb 2800; PerkinElmer Life and Analytical Sciences, Inc.) after adding 4 ml of scintillation solution (Ultima Gold XR; PerkinElmer Life and Analytical Sciences, Inc., Rodgau-Jügesheim, Germany). […]
as §3

Data set [7] relates to fibroblasts. Also on record: method as in PMID 7040384. The settings on record: read-out: KM for uptake of L-homoarginine by cells; cited from earlier work.
For data set [8], the target named is T2, human CAT2B (SLC7A2B). Put plainly: CAT2B-mediated uptake of [3H]-L-homoarginine in HEK293 cells overexpressing CAT2B. The format is cell-based. The method, then:
as §1, §2, §3

For data set [9], the target named is T3, human CAT1 (SLC7A1). Put plainly: Inhibition of CAT1-mediated substrate uptake in HEK CAT1 cells. The format is cell-based. The method, then:
as §1, §4, §5, §3

Where [10] appears, read: net uptake, 2.5 min incubation, 37 °C.
Setting [11] is: substrate L-homoarginine 100 µmol/l, inhibitor 1-10000 µmol/l, read-out: IC50 for inhibition of CAT2B-mediated uptake of L-homoarginine.

Like-named read-outs stand apart in the source and are kept apart here.

T1 sequence (P52569 1-697 isoform P52569-2): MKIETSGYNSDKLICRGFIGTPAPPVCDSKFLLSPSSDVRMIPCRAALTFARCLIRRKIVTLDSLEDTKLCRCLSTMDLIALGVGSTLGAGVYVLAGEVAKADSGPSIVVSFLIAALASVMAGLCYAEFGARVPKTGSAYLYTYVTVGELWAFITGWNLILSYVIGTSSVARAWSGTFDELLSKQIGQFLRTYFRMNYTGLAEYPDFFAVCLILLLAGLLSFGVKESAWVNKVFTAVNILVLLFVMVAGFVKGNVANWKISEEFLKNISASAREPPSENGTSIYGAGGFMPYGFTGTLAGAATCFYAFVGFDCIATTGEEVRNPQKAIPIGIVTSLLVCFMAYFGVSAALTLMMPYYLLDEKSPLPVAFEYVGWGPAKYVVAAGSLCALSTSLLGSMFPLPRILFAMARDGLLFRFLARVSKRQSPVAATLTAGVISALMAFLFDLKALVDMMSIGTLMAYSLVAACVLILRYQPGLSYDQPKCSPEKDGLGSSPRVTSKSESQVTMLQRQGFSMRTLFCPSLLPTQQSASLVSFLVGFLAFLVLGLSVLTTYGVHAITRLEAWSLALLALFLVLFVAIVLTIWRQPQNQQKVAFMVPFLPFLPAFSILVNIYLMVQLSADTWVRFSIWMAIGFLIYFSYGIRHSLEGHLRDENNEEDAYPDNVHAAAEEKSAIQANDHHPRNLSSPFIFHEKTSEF
T2 sequence (P52569 whole entry): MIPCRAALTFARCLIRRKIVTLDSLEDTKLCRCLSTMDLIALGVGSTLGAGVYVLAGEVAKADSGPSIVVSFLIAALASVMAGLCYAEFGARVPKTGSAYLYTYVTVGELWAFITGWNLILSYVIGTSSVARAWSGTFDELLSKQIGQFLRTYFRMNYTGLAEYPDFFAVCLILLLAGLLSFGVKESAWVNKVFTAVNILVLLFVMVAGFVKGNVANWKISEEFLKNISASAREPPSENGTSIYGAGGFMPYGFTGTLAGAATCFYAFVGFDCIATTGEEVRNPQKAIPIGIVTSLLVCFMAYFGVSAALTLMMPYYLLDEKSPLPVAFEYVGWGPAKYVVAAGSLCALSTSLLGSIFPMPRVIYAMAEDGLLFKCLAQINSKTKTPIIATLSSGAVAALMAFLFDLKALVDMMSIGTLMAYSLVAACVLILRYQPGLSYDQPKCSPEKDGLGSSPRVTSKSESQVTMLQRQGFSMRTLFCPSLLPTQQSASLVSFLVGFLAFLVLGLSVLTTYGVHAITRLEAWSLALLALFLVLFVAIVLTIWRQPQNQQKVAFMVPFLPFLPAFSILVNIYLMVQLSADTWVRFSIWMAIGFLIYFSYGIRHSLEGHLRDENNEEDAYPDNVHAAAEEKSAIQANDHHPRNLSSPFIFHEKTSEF
T3 sequence (P30825 whole entry): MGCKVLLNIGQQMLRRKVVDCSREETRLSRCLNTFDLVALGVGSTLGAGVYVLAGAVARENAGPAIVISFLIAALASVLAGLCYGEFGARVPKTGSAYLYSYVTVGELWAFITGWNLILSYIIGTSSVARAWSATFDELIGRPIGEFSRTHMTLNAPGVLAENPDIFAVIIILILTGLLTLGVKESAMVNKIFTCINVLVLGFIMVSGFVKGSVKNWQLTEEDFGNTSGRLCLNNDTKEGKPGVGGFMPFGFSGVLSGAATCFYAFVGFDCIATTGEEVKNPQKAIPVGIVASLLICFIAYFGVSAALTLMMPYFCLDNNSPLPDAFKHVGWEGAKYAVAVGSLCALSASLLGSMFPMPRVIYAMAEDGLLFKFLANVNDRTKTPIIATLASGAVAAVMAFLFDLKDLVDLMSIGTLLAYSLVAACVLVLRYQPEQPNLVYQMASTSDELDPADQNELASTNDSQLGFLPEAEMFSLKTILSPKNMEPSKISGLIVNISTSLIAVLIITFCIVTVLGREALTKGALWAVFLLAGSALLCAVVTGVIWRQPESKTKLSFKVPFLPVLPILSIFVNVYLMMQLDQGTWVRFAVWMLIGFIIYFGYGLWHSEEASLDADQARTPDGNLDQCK

`NC(N)=NCCCC[C@H](N)C(=O)O` [L-homoarginine]: the “cellular uptake of L-homoarginine vs control cells” value in [1] (L-homoarginine 100 µmol/l, HEK CAT2A vs control cells, p < 0.001) came to 1.6 fold; in [5] (L-homoarginine 100 µmol/l, HEK CAT1 vs HEK VCG418, p < 0.001), 7 fold; in [8] (L-homoarginine 100 µmol/l, HEK CAT2B vs control cells, p < 0.001) it was 2.2 fold. The “saturation of CAT2A-mediated uptake” value in [1] (increasing L-homoarginine concentrations) is “could not be reached”. The “Vmax of CAT2A-mediated uptake” value in [1] (net uptake, 2.5 min, 37 °C, only estimated, limited by maximally attainable L-homoarginine concentration) is > 20 nmol × mg protein^−1 × min^−1. The IC50 in data set [2] (read-out: IC50 for inhibition of CAT2B-mediated uptake of L-arginine, substrate L-arginine 1000 µmol/l, inhibitor 1–100000 µmol/l) was found to be 1220 µM; in [2] (substrate ADMA 100 µmol/l, inhibitor 1–100000 µmol/l, read-out: IC50 for inhibition of CAT2B-mediated uptake of ADMA) it was 1860 µM; in [6] (substrate ADMA 100 µmol/l, inhibitor 1–100000 µmol/l), 9240 µM; in [9] (read-out: IC50 for inhibition of CAT1-mediated uptake of L-arginine, substrate L-arginine 1000 µmol/l, inhibitor 1–100000 µmol/l) it was 1320 µM; in data set [9] (substrate ADMA 100 µmol/l, inhibitor 1–100000 µmol/l, read-out: IC50 for inhibition of CAT1-mediated uptake of ADMA), 642 µM. Also, the “mean plasma concentration after supplementation” value in data set [3] is 17.3 µM. Besides, the Km in [4] was 300 µM; in data set [5] (net uptake, 2.5 min incubation, 37 °C, read-out: apparent KM of CAT1-mediated uptake), 175 ± 7 µM; in [7] it was 40 µM; in data set [8] (net uptake, 2.5 min incubation, 37 °C, read-out: apparent KM of CAT2B-mediated uptake) it was 523 ± 35 µM. Moreover, the “apparent Vmax of CAT1-mediated uptake” value in data set [5] (setting [10]) is recorded as 12 ± 0.1 nmol × mg protein^−1 × min^−1. The “apparent Vmax of CAT2B-mediated uptake” value in data set [8] (setting [10]) is reported as 11 ± 0.2 nmol × mg protein^−1 × min^−1.

As for `N=C(N)NCCC[C@H](N)C(=O)O` [L-arginine, reference compound], the IC50 in [2] (setting [11]) stood at 1440 µM. Also, the “inhibition of CAT2A-mediated transport of L-homoarginine” value in [6] was “could only be inhibited by very high (10000 µmol/l) concentrations”. Further, the “inhibition of CAT1-mediated net uptake of L-homoarginine at physiological concentrations” value in data set [9] (substrate L-homoarginine 2 µmol/l, inhibitor L-arginine 100 µmol/l, p < 0.01) is on record as “significantly inhibited”.

For `CN(C)C(N)=NCCC[C@H](N)C(=O)O` [ADMA, asymmetric dimethylarginine, reference compound], the half-inhibitory concentration (IC50) amounted to 608 µM in data set [2] (setting [11]) and 379 µM in data set [9] (substrate L-homoarginine 100 µmol/l, inhibitor 1-10000 µmol/l, read-out: IC50 for inhibition of CAT1-mediated uptake of L-homoarginine). The “inhibition of CAT2A-mediated transport of L-homoarginine” value in data set [6] is given as “could only be inhibited by very high (10000 µmol/l) concentrations”.
